System: 454973-116-R2-J3-PDC spheroids, viability, % test/control
Experiment: Anticancer human tumor 454973-116-R2-J3-PDC patient-derived pancreatic carcinoma cell line growth inhibition [GQUAD]
Settings: spheroids with HUVEC and MSC; for IC50: curve of first compound; for viability, T/C: stronger effect = lower value
Summary of the method: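 Multi-cell-type spheroids of tumor cells with HUVEC and mesenchymal stem cells, treated with drug combinations. Concentrations descend in half-log steps from near clinical Cmax, or from 10 microM where Cmax is unknown; viability read-out.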

[1] = second compound 0.0316 µM, first compound 0.000999 µM
[2] = second compound 0.0316 µM, first compound 0.00316 µM
[3] = second compound 0.0316 µM, first compound 0.00999 µM
[4] = second compound 0.0316 µM, first compound 0.0316 µM
[5] = second compound 0.0316 µM, first compound 0.0999 µM
[6] = second compound 0.0316 µM, first compound 0.316 µM
[7] = second compound 0.1 µM, first compound 0.000999 µM
[8] = second compound 0.1 µM, first compound 0.00316 µM
[9] = second compound 0.1 µM, first compound 0.00999 µM
[10] = second compound 0.1 µM, first compound 0.0316 µM
[11] = second compound 0.1 µM, first compound 0.0999 µM
[12] = second compound 0.1 µM, first compound 0.316 µM
[13] = second compound 0.316 µM, first compound 0.000999 µM
[14] = second compound 0.316 µM, first compound 0.00316 µM
[15] = second compound 0.316 µM, first compound 0.00999 µM
[16] = second compound 0.316 µM, first compound 0.0316 µM
[17] = second compound 0.316 µM, first compound 0.0999 µM
[18] = second compound 0.316 µM, first compound 0.316 µM
[19] = second compound 1 µM, first compound 0.000999 µM
[20] = second compound 1 µM, first compound 0.00316 µM
[21] = second compound 1 µM, first compound 0.00999 µM
[22] = second compound 1 µM, first compound 0.0316 µM
[23] = second compound 1 µM, first compound 0.0999 µM
[24] = second compound 1 µM, first compound 0.316 µM
[25] = second compound 3.16 µM, first compound 0.000999 µM
[26] = second compound 3.16 µM, first compound 0.00316 µM
[27] = second compound 3.16 µM, first compound 0.00999 µM
[28] = second compound 3.16 µM, first compound 0.0316 µM
[29] = second compound 3.16 µM, first compound 0.0999 µM
[30] = second compound 3.16 µM, first compound 0.316 µM
[31] = second compound 10 µM, first compound 0.000999 µM
[32] = second compound 10 µM, first compound 0.00316 µM
[33] = second compound 10 µM, first compound 0.00999 µM
[34] = second compound 10 µM, first compound 0.0316 µM
[35] = second compound 10 µM, first compound 0.0999 µM
[36] = second compound 10 µM, first compound 0.316 µM
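Also: spheroids exposed to compounds for seven days.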
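For viability, T/C in this document: 100% = DMSO vehicle control viability.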

Molecule `CC[C@@]1(O)C(=O)OCc2c1cc1n(c2=O)Cc2cc3c(CN(C)C)c(O)ccc3nc2-1` + CN(C)c1ccc(Nc2c3ccc(NC(=O)CCN4CCCC4)cc3nc3cc(NC(=O)CCN4CCCC4)ccc23)cc1 has an IC50 (second compound 0.0316 µM) of 45.3 nM, an IC50 (second compound 0.1 µM) of 39.5 nM and an IC50 (second compound 0.316 µM) of 30.3 nM. It also gave an IC50 (second compound 1 µM) of 32.7 nM, an IC50 (second compound 3.16 µM) of 29.9 nM and an IC50 (second compound 10 µM) of 28.8 nM. For the same molecule, the viability, T/C [1] was 97.5%, the viability, T/C [2] was 97.7% and the viability, T/C [3] was 99.5%. For the same molecule, the viability, T/C [4] was 64%, the viability, T/C [5] was 18.2% and the viability, T/C [6] was 20.1%. For the same molecule, the viability, T/C [7] was 111%, the viability, T/C [8] was 102% and the viability, T/C [9] was 88.4%. It also gave a viability, T/C [10] of 60.6%, a viability, T/C [11] of 18.2% and a viability, T/C [12] of 20.5%. For the same molecule, the viability, T/C [13] was 101%, the viability, T/C [14] was 111% and the viability, T/C [15] was 82.1%. For the same molecule, the viability, T/C [16] was 51.3%, the viability, T/C [17] was 23.4% and the viability, T/C [18] was 23%. It also gave a viability, T/C [19] of 99.3%, a viability, T/C [20] of 89.8% and a viability, T/C [21] of 87.1%. For the same molecule, the viability, T/C [22] was 51.7%, the viability, T/C [23] was 20.3% and the viability, T/C [24] was 21.7%. The viability, T/C [25] was 98.7%, the viability, T/C [26] was 82.4% and the viability, T/C [27] was 83%. The viability, T/C [28] was 47.7%, the viability, T/C [29] was 27.6% and the viability, T/C [30] was 23.4%. It also gave a viability, T/C [31] of 83.9%, a viability, T/C [32] of 71.8% and a viability, T/C [33] of 61.5%. It also gave a viability, T/C [34] of 53.6%, a viability, T/C [35] of 31% and a viability, T/C [36] of 25.7%.
In the case of `Cn1ncnc1[C@H]1c2n[nH]c(=O)c3cc(F)cc(c23)N[C@@H]1c1ccc(F)cc1` + CN(C)c1ccc(Nc2c3ccc(NC(=O)CCN4CCCC4)cc3nc3cc(NC(=O)CCN4CCCC4)ccc23)cc1, the IC50 (second compound 0.0316 µM) is reported as > 316 nM, the IC50 (second compound 0.1 µM) is reported as > 316 nM and the IC50 (second compound 0.316 µM) is reported as > 316 nM. For the same molecule, the IC50 (second compound 1 µM) was > 316 nM, the IC50 (second compound 3.16 µM) was > 316 nM and the IC50 (second compound 10 µM) was > 316 nM. The viability, T/C [1] was 106%, the viability, T/C [2] was 94.7% and the viability, T/C [3] was 94.2%. It also gave a viability, T/C [4] of 87%, a viability, T/C [5] of 90.9% and a viability, T/C [6] of 80.7%. It also gave a viability, T/C [7] of 103%, a viability, T/C [8] of 94% and a viability, T/C [9] of 96.6%. It also gave a viability, T/C [10] of 89.4%, a viability, T/C [11] of 81.6% and a viability, T/C [12] of 72.3%. The viability, T/C [13] was 95.2%, the viability, T/C [14] was 97.6% and the viability, T/C [15] was 87.3%. For the same molecule, the viability, T/C [16] was 91.7%, the viability, T/C [17] was 77.7% and the viability, T/C [18] was 71.6%. It also gave a viability, T/C [19] of 90%, a viability, T/C [20] of 84.7% and a viability, T/C [21] of 90.8%. It also gave a viability, T/C [22] of 66.4%, a viability, T/C [23] of 79.8% and a viability, T/C [24] of 64.3%. For the same molecule, the viability, T/C [25] was 90.8%, the viability, T/C [26] was 89.9% and the viability, T/C [27] was 80.8%. For the same molecule, the viability, T/C [28] was 62.8%, the viability, T/C [29] was 82% and the viability, T/C [30] was 64.6%. The viability, T/C [31] was 76.1%, the viability, T/C [32] was 74.6% and the viability, T/C [33] was 72.5%. It also gave a viability, T/C [34] of 63.8%, a viability, T/C [35] of 57.8% and a viability, T/C [36] of 58.9%.

From PubChem BioAssay AID2060508 (Molecular Pharmacology Branch, DTP, NCI, 2025)
